According to patent US20160258954A1, “METHOD OF DIAGNOSING AND TREATING EPSTEIN BARR VIRUS-BASED MYALGIC ENCEPHALOMYELITIS CHRONIC FATIGUE SYNDROME PATIENTS USING A SERUM ANTIBODY ASSAY” (CFS, LLC, priority 2015, published 2016):

Legend:
[1] = Group A patients
CFS patients = assay: Cidofovir treatment of CFS patients; assay type: in vivo, human
Description: In general, to provide a therapeutically effective amount of the antiviral agent, a suitable effective dose will be in the range of 0.1 to 20 grams a day and preferably in the range between 0.3 to 15 grams per day, more preferably about 0.5 to 10 grams per day. The dosage of course, varies with the body weight of the patient up to a 70 kg individual, a dose of 4 grams per day may be appropriate (e.g., […] valacyclovir every six hours). The desired dose can be presented as two-four or more smaller doses administered at appropriate intervals throughout the day. These smaller doses may be administered in unit's dosage forms. For example, for valacyclovir and famciclovir, the dosage can be, for example 14 mg/kg every 6 hours (1.0 g every 6 hours for a 70 kg person). The dosage of valacyclovir and famciclovir can be, for example, up to or at least about 0.5-8 grams every 6 hours. The dosage of valgancyclovir can be, for example, from about 450-900 mg every 12 hours, or up to or at least about 100-2000 mg or more every 12 hours, depending on for example patient weight and tolerance. For maribavir the dosage can be, for example, for about 400-500 mg every 8 hours or for example up to or at least about 100-1000 or more every 8 hours. […] Accordingly, the dosage is adjusted to […] every two weeks. […]

SEID patients = assay: Reviews of antiviral therapy of EBV, CMV and HHV6 subset Group A SEID patients; assay type: in vivo, human; conditions: cidofovir: unpublished studies
Source text: These antiviral agents inhibit the respective DNA polymerases of the appropriate CMV, EBV, HHV6 herpesviruses.[8] […] Herpesvirus (EBV, CMV, HHV6) abortive lytic replication may be associated with SEID.

EBV thymidine kinase = EBV thymidine kinase (Epstein-Barr virus, UniProt P03177); conditions: after gastrointestinal absorption; cited from earlier work
[2] = system: EBV subset ME/CFS patients; assay: Energy Index Point Score (EIPS) of six EBV subset ME/CFS patients treated with valacyclovir for over 12 months; assay type: in vivo, human
Source text: FIG. 2A is a table depicting the clinical results that establish EBV Abortive Lytic replication in the first of six EBV subset ME/CFS patients treated with valacyclovir for over 12 months;
As depicted in FIG. 1, the Energy Index (EI) point score (Copyright, Lerner AM and Deeter R G, 1999), is a simple and reliable metric that can be used to easily evaluate the functional capacity of the CFS patient at each patient-physician visit. *The CFS Energy Index point score can also be determined by questionnaire (US copyright, 1999 Lerner A. M., Deeter, R. J) reproduced with permission. **Kcal per day is calculated for a 70 kg CFS patient. The EI is measured on a scale of 1-10. Validation of the EI was done using two methods: 1.) 20 CFS patients and 22 healthy adults, matched for sex, age, place, and time; EI, CFS=3.6; EI, healthy adults=9.9, p=<0.0001; and 2.) 55 CFS patients evaluated at the same time by the EI and fatigue severity score, correlation 0.67, p=0.0066. Improvement to disappearance of CFS symptoms correlates with an increasing EI.
The validated energy index point score generally can be calculated for each CFS patient every 3 months at physician visits. […]
Demographics. […] The EIPS is a validated (FSS-9 item scale with high degree of internal consistency measured by Cronbach's alpha) is a Functional Activity Appraisal: energy Index Score Healthcare worker Appraisal.

[3] = system: Group A ME/CFS patients (EBV, HCMV, HHV6 subsets); assay: Systematic review 2001-2007 of Group A ME/CFS patients given subset-directed antiviral treatment; assay type: in vivo, human; conditions: 79 of 106 group A patients, pooled valacyclovir (EBV subset) or valganciclovir (HCMV, HHV6 subsets); p<0.0001
Source text: A ME/CFS diagnostic panel was created utilizing initial Fukuda/Carruthers criteria and a systematic review of 142 ME/CFS patients. Two groups of ME/CFS patients were found. Group A patients had elevated serum IgG antibody titers to the herpes viruses Epstein-Barr virus (EBV), cytomegalovirus (HCMV) and Human Herpes virus 6 (HHV6) in single or multiple virus infection, but no other co-infections. Group B patients had similar elevated herpes virus antibody titers, plus serologic evidence of co-infections, tick-borne (“Borrelia burgdorferi”, “Anaplasma phagocytophilia”, “Babesia microti”); “Mycoplasma pneumoniae”; or adult rheumatoid fever. One hundred and six group A ME/CFS patients were followed from 2001-2007, and treated with subset directed valacyclovir EBV subset or valganciclovir (HCMV, HHV6 subsets). The data included over 7000 patient visits and 35,000 data entries.

Sequence of EBV thymidine kinase (P03177 whole entry): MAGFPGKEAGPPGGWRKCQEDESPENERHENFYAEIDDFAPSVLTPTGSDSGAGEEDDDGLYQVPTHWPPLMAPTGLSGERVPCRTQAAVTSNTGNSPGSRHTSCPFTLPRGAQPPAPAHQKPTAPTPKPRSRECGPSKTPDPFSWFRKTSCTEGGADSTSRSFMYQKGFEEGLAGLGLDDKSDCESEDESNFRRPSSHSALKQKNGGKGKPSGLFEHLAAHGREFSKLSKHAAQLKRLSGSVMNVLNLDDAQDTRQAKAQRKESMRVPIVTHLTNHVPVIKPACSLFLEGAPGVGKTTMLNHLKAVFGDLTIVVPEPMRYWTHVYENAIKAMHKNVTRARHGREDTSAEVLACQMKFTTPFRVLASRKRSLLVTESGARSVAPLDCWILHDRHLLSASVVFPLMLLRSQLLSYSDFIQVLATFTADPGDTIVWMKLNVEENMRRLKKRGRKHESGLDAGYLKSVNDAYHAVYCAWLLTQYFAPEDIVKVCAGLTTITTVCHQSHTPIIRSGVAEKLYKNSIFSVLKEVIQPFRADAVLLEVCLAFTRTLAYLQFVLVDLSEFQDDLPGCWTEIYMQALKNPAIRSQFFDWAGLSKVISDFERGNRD

Compound | therapeutic result in SEID patients (SEID patients) | Group A patients recovered to resume normal life [3] [%] | other results
Nc1nc2c(ncn2COCCO)c(=O)[nH]1 [acylocivir] | – | – | absorption [1]: typically not absorbed
Nc1ccn(C[C@@H](CO)OCP(=O)(O)O)c(=O)n1 [cidofovir] | salutary results | – | effectiveness relative to other antiviral agents (CFS patients; administered intravenously): two to three time more effective; treatment time (CFS patients; patients over 50 and/or CFS over 10 years, reduced from over one year): 6-9 months
CC(=O)OCC(CCn1cnc2cnc(N)nc21)COC(C)=O [famciclovir] | salutary results | – | –
CC(C)[C@H](N)C(=O)OCCOCn1cnc2c(=O)[nH]c(N)nc21 [valacyclovir] | salutary results | 74.5 | greater affinity for EBV thymidine kinase than for the host cellular enzyme (EBV thymidine kinase): 200 ×; final EIPS values ([2]; 5 group A ME/CFS patients, one year later, initial EIPS 3.5-5.0 (one patient 6)): 7-8; final EIPS value ([2]; single group B ME/CFS patient (Borrelia burgdorferi co-infection), baseline 3.5): 5
CC(C)[C@H](N)C(=O)OCC(CO)OCn1cnc2c(=O)nc(N)[nH]c21 (stereo partly drawn) [valganciclovir] | salutary results | 74.5 | –
